Measured values from paper PMC10564737, “Structure-based design of a phosphotyrosine-masked covalent ligand targeting the E3 ligase SOCS2” (Nature Communications, 2023).
Several values for one entry are separate records, joined by “and”; a condition that tells them apart may be missing. Equal entries are not always repeated. Where two headings read alike, the source gives them in different places.

Biological target: T1, SBC2 (Homo sapiens, UniProt O14508)
T1 construct: SOCS2 (amino acids 32–198); His6 (N, cleaved yes); made in house; host or cells: E. coli BL21(DE3)
T1 sequence (O14508 32-198): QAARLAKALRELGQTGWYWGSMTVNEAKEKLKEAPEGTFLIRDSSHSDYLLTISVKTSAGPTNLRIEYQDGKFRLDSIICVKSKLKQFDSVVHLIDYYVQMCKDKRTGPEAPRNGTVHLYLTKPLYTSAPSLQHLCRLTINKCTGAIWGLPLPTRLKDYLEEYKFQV
T1 sequence (Q15370 1-104 partner limits assumed): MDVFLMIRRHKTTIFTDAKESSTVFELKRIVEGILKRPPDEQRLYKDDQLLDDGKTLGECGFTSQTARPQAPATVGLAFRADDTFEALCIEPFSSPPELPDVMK
T1 sequence (Q15369 17-112 partner limits assumed): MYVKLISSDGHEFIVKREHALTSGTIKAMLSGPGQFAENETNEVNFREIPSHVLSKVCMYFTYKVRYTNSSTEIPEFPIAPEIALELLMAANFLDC
Test: Covalent fluorescence polarization (FP) probe displacement assay
Assay type: binding
Design: Michaelis-Menten best-fit value Vmax / Michaelis-Menten best-fit Vmax: unit not given here
Settings: for Anisotropy: Cycle 12 (55 min)
Description: With the specific covalent modification of Cys111 established, we decided to fully characterize MN551 as a covalent SOCS2 inhibitor. […] (Fig. 2g, h, Supplementary Fig. 9). Due to the covalent nature of the competing inhibitor, a time-dependent reduction in the fraction of protein-bound probe is observed. […] This value illustrates reasonable specificity for a covalent inhibitor, with nonetheless scope for future optimization. In addition to characterizing the kinetic covalency parameters, we have also assessed the stability of the MN551 by monitoring its reactivity (half-life >70 min) with reduced glutathione (GSH) (Supplementary Fig. 10)[35].
To monitor the SBC2-ligand binding kinetics we designed a fluorescein-labeled small-molecule probe - compound 26. The fluorescence polarization (anisotropy) of a threefold serial dilution of 50 µM SBC2 in 10 nM of the probe in 100 mM HEPES pH 7.5, 50 mM NaCl, 0.5 mM TCEP, 2% DMSO was measured to determine the KL (Supplementary Fig. 9A) (BMG Labtech PHERAstar – firmware v1.33). Protein titration and the curves were fitted using GraphPad Prism 9, using one-site fitting models to determine the probe binding constant, KL. Samples were run in triplicate in 384 well plates, using a total volume per well of 16 μL. The bound fraction of the probe is measure using the equation:1 Fb=Af−A/Af−Ab Where,
A time-dependent reduction in probe anisotropy were measured for a 2-fold serial dilution of […] compound MN551 in 10 nM probe +300 μM SBC2. To determine the initial reversible binding affinity, the initial bound fraction of the probe at time = 0, Fbo (the y-intercept in Fb v/s Time plot, Supplementary Fig. 9B) was plotted against MN551 concentration, and the obtained IC50 is then converted to Ki (Supplementary Fig. 9C)[17]. The slope from Fb versus time graph when divided by Fbo gives rate of covalency, kobs. A plot of kobs v/s MN551 concentration using Michaelis–Menten model of GraphPad Prism 9, provides the parameters kinact (maximum potential rate of inactivation) and KI (concentration of MN551 at which kobs = kinact/2) (Supplementary Fig. 9D, E).
The observed first-order rate constant, kobs is related to KI and kinact by the equation:2 kobs=kinactI/KI+I
At [I]«[KI] the above equation is converted to3 […]
The slope from the plot of kobs against concentration of MN551 gives us the covalent efficiency parameter kinact/KI (Supp Fig. 9F)[30],[33].

[1] = MN551 1562.5 nM, Cycle 6 (25 min)
[2] = MN551 3125 nM, Cycle 6 (25 min)
[3] = MN551 6250 nM, Cycle 6 (25 min)
[4] = MN551 12500 nM, Cycle 6 (25 min)
[5] = MN551 25000 nM, Cycle 6 (25 min)
[6] = MN551 50000 nM, Cycle 6 (25 min)
[7] = linear fit through origin, 14 X values

## O=C(CCl)Nc1cccc(CNC(=O)[C@H](Cc2ccc(OP(=O)(O)O)cc2)NC(=O)Cc2ccc(F)cc2)c1 [MN551]
MN551 1562.5 nM, Cycle 7 (30 min)
  Anisotropy based on Raw Data (485): 249.9 and 251.8 and 246.3
MN551 1562.5 nM, Cycle 2 (5 min)
  Fb, fraction bound: 0.7824 and 0.8178 and 0.7856
MN551 1562.5 nM, Cycle 3 (10 min)
  Fb, fraction bound: 0.7647 and 0.786 and 0.7702
[1]
  Anisotropy data 485,520,520: 247 and 253 and 251
  Fb: 0.6849 and 0.7296 and 0.7125
MN551 1562.5 nM
  Anisotropy: 232.7 and 235.9 and 233.9
MN551 3125 nM, Cycle 7 (30 min)
  Anisotropy based on Raw Data (485): 236.7 and 234.8 and 231.2
MN551 3125 nM, Cycle 3 (10 min)
  Fb, fraction bound: 0.6544 and 0.6694 and 0.6412
[2]
  Anisotropy data 485,520,520: 232.2 and 235.2 and 237.3
  Fb: 0.5431 and 0.5648 and 0.5878
MN551 3125 nM
  Anisotropy: 219.6 and 215.4 and 213.4
MN551 6250 nM, Cycle 7 (30 min)
  Anisotropy based on Raw Data (485): 210.9 and 211.2 and 208.6
MN551 6250 nM, Cycle 3 (10 min)
  Fb, fraction bound: 0.4366 and 0.4454 and 0.4414
[3]
  Anisotropy data 485,520,520: 214.2 and 214.4 and 216.1
  Fb: 0.3707 and 0.3722 and 0.3949
MN551 6250 nM
  Anisotropy: 197.5 and 192.2 and 194.7
MN551 6250 nM, Cycle 19 (90 min), n=1
  Anisotropy data 485,520,520: 182.4 and 180.6 and 182.5
MN551 12500 nM, Cycle 7 (30 min)
  Anisotropy based on Raw Data (485): 198.9 and 196.3 and 194.4
MN551 12500 nM, Cycle 3 (10 min)
  Fb, fraction bound: 0.2711 and 0.337 and 0.3633
[4]
  Anisotropy data 485,520,520: 197.3 and 198 and 197.2
  Fb: 0.2088 and 0.2204 and 0.2229
MN551 12500 nM
  Anisotropy: 181.6 and 186.4 and 190.6
MN551 12500 nM, Cycle 19 (90 min), n=1
  Anisotropy data 485,520,520: 175.8 and 177.4 and 179.3
MN551 25000 nM, Cycle 7 (30 min)
  Anisotropy based on Raw Data (485): 184.9 and 182.9 and 181.5
MN551 25000 nM, Cycle 8 (35 min)
  Anisotropy based on Raw Data (485): 180.7 and 181.6
MN551 25000 nM, Cycle 3 (10 min)
  Fb, fraction bound: 0.1627 and 0.184 and 0.1553
[5]
  Anisotropy data 485,520,520: 189.8 and 187 and 188.6
  Fb: 0.137 and 0.1185 and 0.1447
MN551 25000 nM
  Anisotropy: 177.2 and 177.1 and 175
MN551 25000 nM, Cycle 19 (90 min), n=1
  Anisotropy data 485,520,520: 168.3 and 171.4 and 169.1
MN551 50000 nM, Cycle 7 (30 min)
  Anisotropy based on Raw Data (485): 181.6 and 178.4 and 180.2
MN551 50000 nM, Cycle 8 (35 min)
  Anisotropy based on Raw Data (485): 179.2 and 176.8 and 178.5
MN551 50000 nM, Cycle 3 (10 min)
  Fb, fraction bound: 0.08456 and 0.09836 and 0.08356
[6]
  Anisotropy data 485,520,520: 185.8 and 181.1 and 183.7
  Fb: 0.09866 and 0.06389 and 0.1001
MN551 50000 nM
  Anisotropy: 173.6 and 173.5 and 174.7
MN551 50000 nM, Cycle 19 (90 min), n=1
  Anisotropy data 485,520,520: 167.6 and 168.6 and 168.7
MN551 100000 nM, Cycle 7 (30 min)
  Anisotropy based on Raw Data (485): 179.4 and 180.3 and 179.5
MN551 100000 nM, Cycle 8 (35 min)
  Anisotropy based on Raw Data (485): 176.4 and 175.9
MN551 100000 nM, Cycle 3 (10 min)
  Fb, fraction bound: 0.06066 and 0.07013 and 0.06449
MN551 100000 nM, Cycle 6 (25 min)
  Anisotropy data 485,520,520: 179.9 and 183.4
MN551 100000 nM
  Anisotropy: 176.4 and 173.8 and 174.3
MN551 100000 nM, Cycle 19 (90 min), n=1
  Anisotropy data 485,520,520: 171.6 and 169.1
Mean, n = 3, time = 0, read-out: Ki
  Ki: 1110 nM
Calculated from IC50 at time = 0, read-out: Ki at time = 0 (initial reversible binding affinity)
  Ki: 1100 nM
Experiment n=1, 95% CI 0.01343 to 0.01564
  Michaelis-Menten best-fit value Vmax: 0.0145
Experiment n=1, Y = 3.349e-006*X + 0.000, 95% CI 3.026e-006 to 3.671e-006
  Linear fit best-fit value Slope: 3.349e-6
[7]
  Slope of linear regression (Equation Y = slope*X + 0.000), covalent efficiency: Y = 3.866e-006*X + 0.000
  Slope, 95% Confidence Intervals: 3.764e-006 to 3.969e-006
Mean ± SEM, n = 3
  kinact (maximum potential rate of inactivation): 2.1 × 10^–4 s^-1
Mean ± SEM, n = 3, read-out: kinact (maximum potential rate of inactivation)
  kinact: 0.0125 min⁻¹
mean, n = 3
  kinact/KI (covalent efficiency): 57.53 M⁻¹ s⁻¹
mean, n = 3, read-out: Ki
  Ki: 3560.67 nM
mean, n = 3, read-out: Kinact (converted)
  kinact: 0.0153 min⁻¹
mean, n = 3, read-out: kinact/KI (covalent efficiency)
  kinact/KI: 3480 M⁻¹ min⁻¹
n=2 experiment
  Michaelis-Menten Vmax, 95% CI (profile likelihood): 0.01305 to 0.01515
n=2 experiment, R squared 0.9902
  Michaelis-Menten best-fit value Vmax: 0.01406
n=2 experiment, from Michaelis-Menten fit (Vmax), read-out: Kinact (min-1) (converted)
  kinact: 0.0141 min⁻¹
n=2 experiment, from Michaelis-Menten fit (Vmax), read-out: Kinact (s-1)
  kinact: 0.014 min⁻¹
read-out: Slope: Kinact/Ki (M-1min-1), FP competition assay to evaluate MN551 covalent efficiency, replicate n=3, Michaelis-Menten fit
  kinact/KI: 3690 M⁻¹ min⁻¹
Replicate n=3, 95% CI 0.01570 to 0.01942
  Michaelis-Menten best-fit Vmax: 0.01742
Replicate n=3, Y-intercept 0
  Linear fit 1/slope: 258642
Replicate n=3, Y-intercept 0, MN551 below Ki titration
  Linear fit best-fit Slope: 3.866e-6
Single replicates
  Kinact, individual replicates n1-n3: 0.014 min⁻¹
  Kinact/KI, individual replicates n1-n3: 52.40 M⁻¹ s⁻¹
Single replicates, read-out: Kinact, individual replicates n1-n3 (converted)
  kinact: 0.0174 min⁻¹
Single replicates, read-out: Kinact/KI, individual replicates n1-n3
  kinact/KI: 3860 M⁻¹ min⁻¹
